From patent US20250195502A1, “APPLICATION OF TETRACYCLIC COMPOUND IN TREATMENT OF TUMORS” (SHANGHAI SHIJIANG BIOTECHNOLOGY CO., LTD, priority 2022, published 2025)

The molecules below were run on NCI-H82 (human small cell lung cancer cell) (assay: Cell viability assay (Promega CellTiter-Glo), inhibitory effect on NCI-H82). Settings: 72 h, 3 days of culture.
Type: cell-based
Outline: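 After 3 days of culture with graded compound doses, ATP-based luminescence (CellTiter-Glo) gave the viability of human small cell lung cancer NCI-H82 cells, maintained in 10% FBS-containing RPMI1640. IC50 is the 50% inhibiting concentration.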
Work on `COc1ccc2cc3[n+](cc2c1OCC(=O)/C=C/c1ccc(C)cc1)CCc1cc2c(cc1-3)OCO2` [compound AB31790] yielded an IC50 of 430 nM.
Molecule `COc1ccc2c(Cc3ccc(C(F)(F)F)cc3)c3[n+](cc2c1OC)CCc1cc2c(cc1-3)OCO2` [compound AB31805] has an IC50 of 2110 nM.

What follows are molecules tested on SW48 (human colon adenocarcinoma cell) (assay: Cell viability assay (Promega CellTiter-Glo), inhibitory effect on SW48). Settings: 72 h, 3 days of culture.
Type: cell-based
Outline: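 IC50 derived from CellTiter-Glo ATP luminescence after 3-day culture with a compound dilution series; cells kept in Leibovitz's L-15 plus 10% fetal bovine serum.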
Work on `COc1ccc2cc3[n+](cc2c1OCC(=O)/C=C/c1ccc(C)cc1)CCc1cc2c(cc1-3)OCO2` [compound AB31790] yielded an IC50 of 420 nM.
Molecule `COc1ccc2c(Cc3ccc(C(F)(F)F)cc3)c3[n+](cc2c1OC)CCc1cc2c(cc1-3)OCO2` [compound AB31805] has an IC50 of 1350 nM.

Each molecule was assayed on G-401 (human renal carcinoma Wilms cell) (assay: Cell viability assay (Promega CellTiter-Glo), inhibitory effect on G-401). Settings: 72 h, 3 days of culture.
Type: cell-based
Outline: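 IC50 comes from luminescent ATP-based viability measured after 3 days of exposure to serially diluted compound. Cultures were kept in McCoy's 5a medium containing 10% fetal bovine serum.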
`COc1ccc2cc3[n+](cc2c1OCC(=O)/C=C/c1ccc(C)cc1)CCc1cc2c(cc1-3)OCO2` [compound AB31790] gave an IC50 of 820 nM.
`COc1ccc2c(Cc3ccc(C(F)(F)F)cc3)c3[n+](cc2c1OC)CCc1cc2c(cc1-3)OCO2` [compound AB31805] was tested, and the IC50 was 1840 nM.

What follows are molecules tested on MDA-MB-453 (breast cancer cell) (assay: Cell viability assay (Promega CellTiter-Glo), inhibitory effect on MDA-MB-453). Settings: Homo sapiens, 72 h, 3 days of culture.
Type: cell-based
Outline: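 IC50 comes from ATP-based CellTiter-Glo viability measured after 3 days of exposure to graded compound concentrations. Cultures were kept in L-15 medium containing 10% fetal bovine serum.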
Molecule `COc1ccc2cc3[n+](cc2c1OCC(=O)/C=C/c1ccc(C)cc1)CCc1cc2c(cc1-3)OCO2` [compound AB31790] has an IC50 of 910 nM.
Molecule `COc1ccc2c(Cc3ccc(C(F)(F)F)cc3)c3[n+](cc2c1OC)CCc1cc2c(cc1-3)OCO2` [compound AB31805] has an IC50 of 4110 nM.

These molecules were tested on CFPAC-1 (human pancreatic cancer cell) (assay: Cell viability assay (Promega CellTiter-Glo), inhibitory effect on CFPAC-1). Settings: 72 h, 3 days of culture.
Type: cell-based
Outline: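 Viability readout via ATP content (CellTiter-Glo) after 3-day exposure to gradient-diluted compounds; IC50 reported. Cells: CFPAC-1, grown in IMDM plus 10% fetal bovine serum.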
`COc1ccc2cc3[n+](cc2c1OCC(=O)/C=C/c1ccc(C)cc1)CCc1cc2c(cc1-3)OCO2` [compound AB31790] was tested, and the IC50 was 7820 nM.
`COc1ccc2c(Cc3ccc(C(F)(F)F)cc3)c3[n+](cc2c1OC)CCc1cc2c(cc1-3)OCO2` [compound AB31805] showed an IC50 of over 50000 nM.

Each molecule was assayed on 786-O (clear cell renal cell adenocarcinoma cell) (assay: Cell viability assay (Promega CellTiter-Glo), inhibitory effect on 786-O). Settings: Homo sapiens, 786-0, 72 h, 3 days of culture.
Type: cell-based
Outline: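 Cell viability determined from ATP content (CellTiter-Glo) after 3-day exposure to compound dilution series, giving IC50. Cells: 786-O clear cell renal adenocarcinoma line in 10% FBS-containing RPMI1640 (+P/S).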
For `COc1ccc2cc3[n+](cc2c1OCC(=O)/C=C/c1ccc(C)cc1)CCc1cc2c(cc1-3)OCO2` [compound AB31790], the IC50 was 4750 nM.
`COc1ccc2c(Cc3ccc(C(F)(F)F)cc3)c3[n+](cc2c1OC)CCc1cc2c(cc1-3)OCO2` [compound AB31805] showed an IC50 of 25800 nM.

Each molecule was assayed on SF126 (human glioblastoma multiforme cell) (assay: Cell viability assay (Promega CellTiter-Glo), inhibitory effect on SF126). Settings: 72 h, SF-126, 3 days of culture, Table 3, read-out: inhibitory effect on SF-126 (IC50).
Type: cell-based
Outline: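 IC50 reflects 50% loss of CellTiter-Glo ATP signal in SF126 glioblastoma cells. Cells were cultured in 10% FBS-containing EMEM and treated with serially diluted compound for 3 days.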
Molecule `COc1ccc2cc3[n+](cc2c1OCC(=O)/C=C/c1ccc(C)cc1)CCc1cc2c(cc1-3)OCO2` [compound AB31790] has an IC50 of 3260 nM.
`COc1ccc2c(Cc3ccc(C(F)(F)F)cc3)c3[n+](cc2c1OC)CCc1cc2c(cc1-3)OCO2` [compound AB31805] showed an IC50 of over 50000 nM.

Same assay, conditions: SF-126, 72 h, SF126, 3 days of culture, Table 4, read-out: inhibitory effect on brain cell line SF126 (IC50)
`COc1ccc2cc3[n+](cc2c1OCC(=O)/C=C/c1ccc(C)cc1)CCc1cc2c(cc1-3)OCO2` [compound AB31790] was tested, and the IC50 was 3260 nM.
`COc1ccc2c(Cc3ccc(C(F)(F)F)cc3)c3[n+](cc2c1OC)CCc1cc2c(cc1-3)OCO2` [compound AB31805] gave an IC50 of over 50000 nM.

These molecules were tested on GB-1 (human brain glioblastoma cell) (assay: Cell viability assay (Promega CellTiter-Glo), inhibitory effect on GB-1). Settings: 72 h, 3 days of culture, Table 3, read-out: inhibitory effect on GB-1 (IC50).
Type: cell-based
Outline: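 Intracellular ATP measured by CellTiter-Glo served as the viability readout for IC50, taken 3 days after adding gradient-diluted compound. Cells were kept in 10% FBS-containing DMEM.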
`COc1ccc2cc3[n+](cc2c1OCC(=O)/C=C/c1ccc(C)cc1)CCc1cc2c(cc1-3)OCO2` [compound AB31790] gave an IC50 of 3730 nM.
`COc1ccc2c(Cc3ccc(C(F)(F)F)cc3)c3[n+](cc2c1OC)CCc1cc2c(cc1-3)OCO2` [compound AB31805] was tested, and the IC50 was over 50000 nM.

Same assay, conditions: 72 h, 3 days of culture, Table 4, read-out: inhibitory effect on brain cell line GB-1 (IC50)
`COc1ccc2cc3[n+](cc2c1OCC(=O)/C=C/c1ccc(C)cc1)CCc1cc2c(cc1-3)OCO2` [compound AB31790] showed an IC50 of 3730 nM.
With `COc1ccc2c(Cc3ccc(C(F)(F)F)cc3)c3[n+](cc2c1OC)CCc1cc2c(cc1-3)OCO2` [compound AB31805] the IC50 was over 50000 nM.

These molecules were tested on Kelly (brain neuroblastoma cell) (assay: Cell viability assay (Promega CellTiter-Glo), inhibitory effect on Kelly). Settings: Homo sapiens, 72 h, 3 days of culture, read-out: inhibitory effect on brain cell line Kelly (IC50).
Type: cell-based
Outline: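 Kelly cells were cultured in RPMI1640 with 10% FBS and 2 mM glutamine, then treated with serially diluted compounds for 3 days. Viability was measured as intracellular ATP by CellTiter-Glo luminescence, and IC50 was derived from the dose-response.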
`COc1ccc2cc3[n+](cc2c1OCC(=O)/C=C/c1ccc(C)cc1)CCc1cc2c(cc1-3)OCO2` [compound AB31790] showed an IC50 of 270 nM.
`COc1ccc2c(Cc3ccc(C(F)(F)F)cc3)c3[n+](cc2c1OC)CCc1cc2c(cc1-3)OCO2` [compound AB31805] was tested, and the IC50 was 4820 nM.

What follows are molecules tested on NB-1 (brain neuroblastoma cell) (assay: Cell viability assay (Promega CellTiter-Glo), inhibitory effect on NB-1). Settings: Homo sapiens, 72 h, 3 days of culture, read-out: inhibitory effect on brain cell line NB-1 (IC50).
Type: cell-based
Outline: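 NB-1 cells grown in L-15 medium with 10% FBS were exposed to serially diluted compounds for 3 days after passage. Viability was read as intracellular ATP by CellTiter-Glo luminescence. IC50 was taken as the concentration giving 50% inhibition.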
Molecule `COc1ccc2cc3[n+](cc2c1OCC(=O)/C=C/c1ccc(C)cc1)CCc1cc2c(cc1-3)OCO2` [compound AB31790] has an IC50 of 230 nM.
`COc1ccc2c(Cc3ccc(C(F)(F)F)cc3)c3[n+](cc2c1OC)CCc1cc2c(cc1-3)OCO2` [compound AB31805] was tested, and the IC50 was 1030 nM.

The molecules below were run on D341 Med (cerebellar medulloblastoma cell) (assay: Cell viability assay (Promega CellTiter-Glo), inhibitory effect on D341 Med). Settings: Homo sapiens, 72 h, 3 days of culture, read-out: inhibitory effect on brain cell line D341 Med (IC50).
Type: cell-based
Outline: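 D341 Med cells grown in EMEM with 20% FBS (+P/S) were treated with serially diluted compounds after passage. Viability after 3 days of culture was read as intracellular ATP by CellTiter-Glo luminescence, and IC50 was derived.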
Molecule `COc1ccc2cc3[n+](cc2c1OCC(=O)/C=C/c1ccc(C)cc1)CCc1cc2c(cc1-3)OCO2` [compound AB31790] has an IC50 of 260 nM.
Molecule `COc1ccc2c(Cc3ccc(C(F)(F)F)cc3)c3[n+](cc2c1OC)CCc1cc2c(cc1-3)OCO2` [compound AB31805] has an IC50 of 4800 nM.

What follows are molecules tested on Con-NCI-H82 cell (NCI-H82 transfected with empty virus vector) (assay: Cell viability assay (Promega CellTiter-Glo), inhibitory effect on Con-NCI-H82 cell). Settings: Homo sapiens; NCI-H82 transfected with empty virus vector (control); CellTiter-Glo; read-out: inhibitory effect on Con-NCI-H82 (IC50).
Type: cell-based
Outline: (§1)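 Viability measured by CellTiter-Glo in three NCI-H82 variants: empty-vector control, viral NNMT overexpression, and viral shRNA DNMT1 knockdown, each checked by Western blot.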
In the case of `COc1ccc2cc3[n+](cc2c1OCC(=O)/C=C/c1ccc(C)cc1)CCc1cc2c(cc1-3)OCO2` [compound AB31790], the IC50 is reported as 430 nM.
`COc1ccc2c(Cc3ccc(C(F)(F)F)cc3)c3[n+](cc2c1OC)CCc1cc2c(cc1-3)OCO2` [compound AB31805] showed an IC50 of 2110 nM.

These molecules were tested on ov-NNMT NCI-H82 cell (NNMT protein-overexpressing NCI-H82) (assay: Cell viability assay (Promega CellTiter-Glo), inhibitory effect on ov-NNMT NCI-H82 cell). Settings: Homo sapiens.
Type: cell-based
Outline: as §1
`COc1ccc2cc3[n+](cc2c1OCC(=O)/C=C/c1ccc(C)cc1)CCc1cc2c(cc1-3)OCO2` [compound AB31790] was tested, and the IC50 was 1520 nM.
For `COc1ccc2c(Cc3ccc(C(F)(F)F)cc3)c3[n+](cc2c1OC)CCc1cc2c(cc1-3)OCO2` [compound AB31805], the IC50 was 4820 nM.

Each molecule was assayed on sh-DNMT1 NCI-H82 cell (DNMT1 knocked down NCI-H82) (assay: Cell viability assay (Promega CellTiter-Glo), inhibitory effect on sh-DNMT1 NCI-H82 cell). Settings: Homo sapiens, NCI-H82 with DNMT1 knocked down by shRNA.
Type: cell-based
Outline: as §1
`COc1ccc2cc3[n+](cc2c1OCC(=O)/C=C/c1ccc(C)cc1)CCc1cc2c(cc1-3)OCO2` [compound AB31790] gave an IC50 of 1390 nM.
Molecule `COc1ccc2c(Cc3ccc(C(F)(F)F)cc3)c3[n+](cc2c1OC)CCc1cc2c(cc1-3)OCO2` [compound AB31805] has an IC50 of 6040 nM.
